Results on 11 compounds are retold here after patent US20250332266A1, “COMPOUNDS FOR THE DEGRADATION OF EGFR KINASE” (BeiGene Switzerland GmbH, priority 2022, published 2025).

For assay [1], the target named is EGFR Del19/T790M/C797S (H1975-clone #28) (Homo sapiens, UniProt P00533, T790M/C797S, form not given). Briefly: EGFR degradation, HTRF total-EGFR assay, H1975-clone #28 (DTC). The format is cell-based. As to conditions: H1975-clone #28 Del19/T790M/C797S, 16 h treatment. The text has this: (§1) H1975-clone #28 (Del19/T790M/C797S, or abbr: DTC), H1975-clone #23 (Del19/C797S, or abbr: DC), H1975-clone #25 (L858R/T790M/C797S, or abbr: LTC) and H1975-clone #8 (L858R/C797S, or abbr: LC). EGFR-Del19/T790M/C797S, EGFR-Del19/C797S, EGFR-L858R/T790M/C797S and EGFR-L858R/C797S were stably expressed in H1975 cell lines by lentivirus-mediated over-expression, respectively. The EGFR over-expressed cells then underwent knockout, in which the EGFR targeting sgRNA was designed to only target the endogenous EGFR copies and preserve the exogenous EGFR copies. Followed by the knockout, the edited H1975 cells were seeded in 96 well plates at the concentration of 1 cell/well, cultured for about 2 weeks to allow single clones formation. The formed clones were screened by DNA sequencing and whole exon sequencing analysis for the desired edition. H1975-clone #28, H1975-clone #23, H1975-clone #25 and H1975-clone #8 were finally confirmed as homozygous Del19/T790M/C797S EGFR, Del19/C797S EGFR, L858R/T790M/C797S EGFR and L858R/C797S EGFR clones, respectively.
(§2) H1975-#25, H1975-#28, H1975-#23 and H1975-#8 cells are treated with compounds diluted in 0.2% DMSO cell culture medium on day 2, incubate for 16 h, 37° C., 5% CO2. The final concentration of compounds in all assay is start with 10 μM, 5-fold dilution, total 8 doses were included.
(§3) Total-EGFR cellular kit(64NG1PEH) were used for evaluating EGFR degradation.
(§4) After 16 h treatment, add HTRF lysis buffer to each well; seal the plate and incubate 1 hour at room temperature on a plate shaker; Once the cells are lysed, 16 μL of cell lysate are transferred to a PE 384-well HTRF detection plate; 4 μL of pre-mixed HTRF antibodies are added to each well; cover the plate with a plate sealer, spin 1000 rpm for 1 min, incubate overnight at room temperature; read on BMG PheraStar with HTRF protocol (337 nm-665 nm-620 nm).
(§5) The inhibition (degradation) percentage of the compound was calculated by the following equation:
(§6) Inhibition percentage of Compound=100−100×(Signal−low control)/(High control−low control), wherein signal=each test compound group
(§7) High control=Cell group with added DMSO and without compound, indicating microplate readings without EGFR degradation.
(§8) Imax (Dmax) is the maximum percentage of inhibition (degradation).
(§9) The IC50 (DC50) value of a compound can be obtained by fitting the following equation
(§10) Wherein, X and Y are known values, and IC50, Hillslope, Top and Bottom are the parameters obtained by fitting with software. Y is the inhibition percentage (calculated from the equation), X is the concentration of the compound; IC50 is the concentration of the compound when the 50% inhibition is reached. The smaller the IC50 value is, the stronger the inhibitory ability of the compound is. Vice versa, the higher the IC50 value is, the weaker the ability the inhibitory ability of the compound is; Hillslope represents the slope of the fitted curve, generally around 1*; Bottom represents the minimum value of the curve obtained by data fitting, which is generally 0%±20%; Top represents the maximum value of the curve obtained by data fitting, which is generally 100%±20%. The experimental data were fitted by calculating and analyzing with Dotmatics data analysis software.
A general note: In TR-FRET formats the signal depends on donor and acceptor labels being close together.

Assay [2] has as its target T1, EGFR L858R/T790M/C797S (H1975-clone #25) (Homo sapiens, UniProt P00533, C797S/L858R/T790M).
T1 construct: expressed in transfected cells; host or cells: H1975 (clone #25), lentiviral transduction, endogenous EGFR knocked out
Briefly: EGFR degradation, HTRF total-EGFR assay, H1975-clone #25 (LTC). Format: cell-based. To be noted: H1975-clone #25 L858R/T790M/C797S, 16 h treatment.
Description: as §1, §2, §3, §4, §5, §6, §7, §8, §9, §10

T1 sequence (P00533 25-1210 T790M/C797S/L858R): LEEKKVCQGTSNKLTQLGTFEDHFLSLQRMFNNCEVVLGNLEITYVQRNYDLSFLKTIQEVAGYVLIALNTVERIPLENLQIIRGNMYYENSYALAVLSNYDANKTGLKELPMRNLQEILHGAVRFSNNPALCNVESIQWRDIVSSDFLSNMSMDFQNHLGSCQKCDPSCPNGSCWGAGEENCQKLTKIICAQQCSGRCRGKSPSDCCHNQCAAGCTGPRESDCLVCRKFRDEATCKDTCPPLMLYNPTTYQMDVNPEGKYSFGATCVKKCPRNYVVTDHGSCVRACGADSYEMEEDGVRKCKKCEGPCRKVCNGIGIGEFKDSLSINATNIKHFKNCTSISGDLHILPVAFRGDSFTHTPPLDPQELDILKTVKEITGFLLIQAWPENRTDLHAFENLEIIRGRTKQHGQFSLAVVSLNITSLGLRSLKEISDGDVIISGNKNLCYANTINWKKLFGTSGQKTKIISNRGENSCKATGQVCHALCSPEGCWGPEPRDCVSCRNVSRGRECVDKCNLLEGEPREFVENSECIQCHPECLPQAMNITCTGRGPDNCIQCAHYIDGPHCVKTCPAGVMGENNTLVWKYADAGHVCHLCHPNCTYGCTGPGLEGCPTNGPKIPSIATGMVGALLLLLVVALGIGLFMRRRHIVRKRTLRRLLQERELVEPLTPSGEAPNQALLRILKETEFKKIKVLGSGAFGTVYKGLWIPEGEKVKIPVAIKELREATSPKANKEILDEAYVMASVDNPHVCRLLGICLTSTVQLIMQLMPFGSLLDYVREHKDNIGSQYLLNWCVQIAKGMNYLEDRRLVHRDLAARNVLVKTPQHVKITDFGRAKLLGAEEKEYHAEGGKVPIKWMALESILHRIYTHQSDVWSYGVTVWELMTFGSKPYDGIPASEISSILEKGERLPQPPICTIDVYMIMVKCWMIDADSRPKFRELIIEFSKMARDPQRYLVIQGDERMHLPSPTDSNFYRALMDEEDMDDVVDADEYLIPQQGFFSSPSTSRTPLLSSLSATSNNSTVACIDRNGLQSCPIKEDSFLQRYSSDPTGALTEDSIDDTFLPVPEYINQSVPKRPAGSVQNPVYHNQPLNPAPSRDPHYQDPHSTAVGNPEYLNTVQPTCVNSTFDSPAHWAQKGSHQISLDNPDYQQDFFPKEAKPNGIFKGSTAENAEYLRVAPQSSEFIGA
Sequence of EGFR Del19/T790M/C797S (H1975-clone #28) (P00533 with tags, fused parts or gaps DEL746-750/T790M/C797S, form open): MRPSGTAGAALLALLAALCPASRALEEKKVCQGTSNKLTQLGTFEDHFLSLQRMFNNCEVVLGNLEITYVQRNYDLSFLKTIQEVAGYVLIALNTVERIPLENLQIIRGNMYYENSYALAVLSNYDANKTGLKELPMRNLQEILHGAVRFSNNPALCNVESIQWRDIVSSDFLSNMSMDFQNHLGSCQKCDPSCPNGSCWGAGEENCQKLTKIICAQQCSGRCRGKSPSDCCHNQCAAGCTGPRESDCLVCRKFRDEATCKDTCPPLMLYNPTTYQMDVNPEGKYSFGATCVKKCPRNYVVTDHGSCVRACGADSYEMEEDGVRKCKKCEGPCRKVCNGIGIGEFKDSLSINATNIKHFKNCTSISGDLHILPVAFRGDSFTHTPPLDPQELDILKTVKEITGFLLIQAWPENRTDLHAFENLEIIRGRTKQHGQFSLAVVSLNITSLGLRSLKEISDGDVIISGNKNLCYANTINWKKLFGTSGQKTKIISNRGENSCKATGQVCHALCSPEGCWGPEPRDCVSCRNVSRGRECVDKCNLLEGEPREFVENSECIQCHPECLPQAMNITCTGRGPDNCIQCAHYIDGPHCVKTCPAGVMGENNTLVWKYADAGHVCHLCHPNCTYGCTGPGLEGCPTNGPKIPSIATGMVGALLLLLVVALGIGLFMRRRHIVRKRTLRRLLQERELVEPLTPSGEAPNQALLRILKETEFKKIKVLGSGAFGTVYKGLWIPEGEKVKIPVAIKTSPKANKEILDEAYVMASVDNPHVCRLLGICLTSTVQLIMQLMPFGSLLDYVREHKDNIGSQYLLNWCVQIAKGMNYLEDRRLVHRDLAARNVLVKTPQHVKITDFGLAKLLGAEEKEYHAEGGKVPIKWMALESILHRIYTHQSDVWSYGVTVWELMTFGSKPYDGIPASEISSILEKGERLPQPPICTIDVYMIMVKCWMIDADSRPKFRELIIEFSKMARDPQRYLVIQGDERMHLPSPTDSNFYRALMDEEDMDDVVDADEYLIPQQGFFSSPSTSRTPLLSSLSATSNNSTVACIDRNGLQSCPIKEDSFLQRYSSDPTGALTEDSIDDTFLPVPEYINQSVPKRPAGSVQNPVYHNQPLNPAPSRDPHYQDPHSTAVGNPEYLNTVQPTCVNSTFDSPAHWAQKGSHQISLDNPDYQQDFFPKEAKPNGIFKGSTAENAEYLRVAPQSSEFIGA

Turning to `Cc1cc2cc(n1)-c1cnn(C)c1OC[C@H]1C[C@@H](CN3/C(=N/C2=O)Nc2ccc(N4CCN(CCNc5cc(F)c([C@H]6CCC(=O)NC6=O)c(F)c5)CC4)cc23)C1` (single isomer, unassigned) [Example 14], the “Degradation H1975 # 28 DTC” value in assay [1] came to 77.1. Also, in assay [2], the “Degradation H1975 # 25-LTC” value is 83.9.

Take `Cc1cc2cc(n1)-c1cnn(C)c1OC[C@H]1C[C@@H](CN3/C(=N/C2=O)Nc2ccc(N4CCN([C@H]5C[C@@H](Nc6cc(F)c([C@H]7CCC(=O)NC7=O)c(F)c6)C5)CC4)cc23)C1` (single isomer, unassigned) [Example 16]: the “Degradation H1975 # 28 DTC” value in assay [1] amounted to 71.5. Moreover, the “Degradation H1975 # 25-LTC” value in assay [2] came out at 64.0.

In the case of `Cc1cc2cc(n1)-c1cnn(C)c1OC[C@H]1C[C@@H](CN3/C(=N/C2=O)Nc2ccc(N4CCN(C5CCN(c6cnc(C7CCC(=O)NC7=O)c(F)c6)CC5)CC4)cc23)C1` (single isomer, unassigned) [Example 38, 3-(5-(4-(4-((7^1s,7^3s,E)-1^1,2^6-dimethyl-3-oxo-5^2,5^3-dihydro-1^1H,5^1H-9-oxa-4-aza-5(2,1)-benzo[d]imidazola-2(2,4)-pyridina-1(4,5)-pyrazola-7(1,3)-cyclobutanacyclononaphane-5^6-yl)piperazin-1-yl)piperdine-1-yl)-3-fluoropyridin-2-yl)piperidine 6-dione], the “Degradation H1975 # 28 DTC” value in assay [1] stood at 78.4. Also, the “Degradation H1975 # 25-LTC” value in assay [2] came to 81.4.

Consider `Cc1cc2cc(n1)-c1cnn(C)c1OC[C@H]1C[C@@H](CN3/C(=N/C2=O)Nc2ccc(N4CCN(C5CCN(c6cnc(C7CCC(=O)NC7=O)cc6C)CC5)C[C@H]4C)cc23)C1` (stereo partly drawn) [Example 1, 3-(5-(4-((R)-4-((7^1s,7^3S,E)-1^1,2^6-dimethyl-3-oxo-5^2,5^3-dihydro-1^1H,5^1H-9-oxa-4-aza-5(2,1)-benzo[d]imidazola-2(2,4)-pyridina-1(4,5)-pyrazola-7(1,3)-cyclobutanacyclononaphane-5^6-yl)-3-methylpiperazin-1-yl)piperidin-1-yl)-4-methylpyridin-2-yl)piperidine-2,6-dione], for which the “Degradation H1975 # 28 DTC” value in assay [1] worked out at 91.9. In addition, the “Degradation H1975 # 25-LTC” value in assay [2] turned out to be 92.8.

Take `Cc1cc2cc(n1)-c1cnn(C)c1OC[C@H]1C[C@H](CN3/C(=N/C2=O)Nc2ccc(CN4CCN(C(=O)C5CN(c6cc(F)c([C@H]7CCC(=O)NC7=O)c(F)c6)CC5(C)C)CC4)cc23)C1` (stereo partly drawn) [Example 2, (R)-3-(4-((S)-4-(4-(((7^1r,7^3S,E)-1^1,2^6-dimethyl-3-oxo-5^2,5^3-dihydro-1^2H,5′H-9-oxa-4-aza-5(2,1)-benzo[d]imidazola-2(2,4)-pyridina-1(4,5)-pyrazola-7(1,3)-cyclobutanacyclononaphane-5^6-yl)methyl)piperazine-1-carbonyl)-3,3-dimethylpyrrolidin-1-yl)-2,6-difluorophenyl)piperidine-2,6-dione]: the “Degradation H1975 # 28 DTC” value in assay [1] is 84.3. The “Degradation H1975 # 25-LTC” value in assay [2] worked out at 62.0.

`Cc1cc2cc(n1)-c1cnn(C)c1OC[C@H]1C[C@@H](CN3/C(=N/C2=O)Nc2ccc(CN4CCN(C(=O)C5CN(c6cc(F)c([C@H]7CCC(=O)NC7=O)c(F)c6)C5)CC4)cc23)C1` [Example 3, (R)-3-(4-(3-(4-(((7^1s,7^3s,E)-1^1,2^6-dimethyl-3-oxo-5^2,5^3-dihydro-1^1H,5^1H-9-oxa-4-aza-5(2,1)-benzo[d]imidazola-2(2,4)-pyridina-1(4,5)-pyrazola-7(1,3)-cyclobutanacyclononaphane-5^6-yl)methyl)piperazine-1-carbonyl)azetidin-1-yl)-2,6-difluorophenyl)piperidine-2,6-dione]: in assay [1], the “Degradation H1975 # 28 DTC” value stood at 86.7. Further, the “Degradation H1975 # 25-LTC” value in assay [2] is reported as 85.6.

For `Cc1cc2cc(n1)-c1cnn(C)c1OC[C@H]1C[C@@H](CN3/C(=N/C2=O)Nc2ccc(CN4CCN(C(=O)C5CN(c6cc(F)c([C@H]7CCC(=O)NC7=O)c(F)c6)CC5(C)C)CC4)cc23)C1` (stereo partly drawn) [Example 4, (R)-3-(4-((S)-4-(4-(((7^1s,7^3R,E)-1^1,2^6-dimethyl-3-oxo-5^2,5^3-dihydro-1^1H,5^1H-9-oxa-4-aza-5(2,1)-benzo[d]imidazola-2(2,4)-pyridina-1(4,5)-pyrazola-7(1,3)-cyclobutanacyclononaphane-5^6-yl)methyl)piperazine-1-carbonyl)-3,3-dimethylpyrrolidin-1-yl)-2,6-difluorophenyl)piperidine-2,6-dione], the “Degradation H1975 # 28 DTC” value in assay [1] is reported as 84.6. For the same compound, in assay [2], the “Degradation H1975 # 25-LTC” value worked out at 86.6.

In the case of `Cc1cc2cc(n1)-c1cnn(C)c1OC[C@H]1C[C@@H](CN3/C(=N/C2=O)Nc2ccc(N4CCC(N5CCN(c6cnc(C7CCC(=O)NC7=O)cc6C)CC5)CC4)cc23)C1` (stereo partly shown) [Example 5, 3-(5-(4-(1-((7^1s,7^3s,E)-1^1,2^6-dimethyl-3-oxo-5^2,5^3-dihydro-1^1H,5^1H-9-oxa-4-aza-5(2,1)-benzo[d]imidazola-2(2,4)-pyridina-1(4,5)-pyrazola-7(1,3)-cyclobutanacyclononaphane-5^6-yl)piperidin-4-yl)piperazin-1-yl)-4-methylpyridin-2-yl)piperidine-2,6-dione], in assay [1], the “Degradation H1975 # 28 DTC” value is 92.2. Further, in assay [2], the “Degradation H1975 # 25-LTC” value is 92.9.

On to `Cc1cc2cc(n1)-c1cnn(C)c1OC[C@H]1C[C@@H](CN3/C(=N/C2=O)Nc2ccc(N4CCN(C5CCN(c6ccc(C7CCC(=O)NC7=O)nc6)CC5)C[C@H]4C)cc23)C1` (stereo partly drawn) [Example 7, 3-(5-(4-((R)-4-((7^1s,7^3S,E)-1^1,2^6-dimethyl-3-oxo-5^2,5^3-dihydro-1^1H,5^1H-9-oxa-4-aza-5(2,1)-benzo[d]imidazola-2(2,4)-pyridina-1(4,5)-pyrazola-7(1,3)-cyclobutanacyclononaphane-5^6-yl)-3-methylpiperazin-1-yl)piperidin-1-yl)pyridin-2-yl)piperidine-2,6-dione], for which the “Degradation H1975 # 28 DTC” value in assay [1] was found to be 80.6. Moreover, in assay [2], the “Degradation H1975 # 25-LTC” value amounted to 78.6.

On to `Cc1cc2cc(n1)-c1cnn(C)c1OC[C@H]1C[C@@H](CN3/C(=N/C2=O)Nc2ccc(N4CCN(CCc5cc(F)c([C@H]6CCC(=O)NC6=O)c(F)c5)CC4=O)cc23)C1` [Example 9, (R)-3-(4-(2-(4-((7^1s,7^3s,E)-1^1,2^6-dimethyl-3-oxo-5^2,5^3-dihydro-1^1H,5^1H-9-oxa-4-aza-5(2,1)-benzo[d]imidazola-2(2,4)-pyridina-1(4,5)-pyrazola-7(1,3)-cyclobutanacyclononaphane-5^6-yl)-3-oxopiperazin-1-yl)ethyl)-2,6-difluorophenyl)piperidine-2,6-dione], for which the “Degradation H1975 # 28 DTC” value in assay [1] came to 90.9. Also, the “Degradation H1975 # 25-LTC” value in assay [2] stood at 88.5.

`Cc1cc2cc(n1)-c1cnn(C)c1OC[C@H]1C[C@@H](CN3/C(=N/C2=O)Nc2ccc(N4CCN(C5CCN(c6cc(F)c([C@H]7CCC(=O)NC7=O)c(F)c6)CC5)CC4=O)cc23)C1` [Example 10, (R)-3-(4-(4-(4-((7^1s,7^3s,E)-1^1,2^6-dimethyl-3-oxo-5^2,5^3-dihydro-1^1H,5^1H-9-oxa-4-aza-5(2,1)-benzo[d]imidazola-2(2,4)-pyridina-1(4,5)-pyrazola-7(1,3)-cyclobutanacyclononaphane-5^6-yl)-3-oxopiperazin-1-yl)piperidin-1-yl)-2,6-difluorophenyl)piperidine-2,6-dione]: the “Degradation H1975 # 28 DTC” value in assay [1] came to 90.6. In assay [2], the “Degradation H1975 # 25-LTC” value worked out at 89.8.
